Data taken from the supplement of paper PMC10307832.

How the values were obtained:
Assay in all cases: relative viability (nuclei count vs DMSO), 5 days (fraction); higher = more cells survive
NCI-H661 = tested on: NCI-H661
Outline: (§1)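 Values are medians from duplicate plates. Each reflects relative viability, defined as the nuclei count of treated wells over that of vehicle wells. Lung cancer cell lines in 1536-well plates were pin-tool dosed one day after seeding with one drug alone or with a fixed anchor-drug dose plus five library-drug doses (not always all listed) in √10 steps, then fixed, stained and imaged at 4× after 5 days.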

SW 1573 = tested on: SW 1573
Outline: as §1

NCI-H2009 = tested on: NCI-H2009
Outline: as §1

NCI-H2126 = tested on: NCI-H2126
Outline: as §1

NCI-H647 = tested on: NCI-H647
Outline: as §1

H3255 = tested on: H3255
Outline: as §1

EMC-BAC-2 = tested on: EMC-BAC-2
Outline: as §1

LXF-289 = tested on: LXF-289
Outline: as §1

PC-14 = tested on: PC-14
Outline: as §1

EPLC-272H = tested on: EPLC-272H
Outline: as §1

HOP-62 = tested on: HOP-62
Outline: as §1

LCLC-97TM1 = tested on: LCLC-97TM1
Outline: as §1

NCI-H1993 = tested on: NCI-H1993
Outline: as §1

NCI-H322M = tested on: NCI-H322M
Outline: as §1

NCI-H1915 = tested on: NCI-H1915
Outline: as §1

SK-LU-1 = tested on: SK-LU-1
Outline: as §1

NCI-H727 = tested on: NCI-H727
Outline: as §1

NCI-H2347 = tested on: NCI-H2347
Outline: as §1

NCI-H2085 = tested on: NCI-H2085
Outline: as §1

NCI-H2023 = tested on: NCI-H2023
Outline: as §1

NCI-H1734 = tested on: NCI-H1734
Outline: as §1

CCN(CC)CCCCNc1ncc2cc(-c3cc(OC)cc(OC)c3)c(NC(=O)NC(C)(C)C)nc2n1 + Cc1cc(Nc2cc(N3CCN(C)CC3)nc(Sc3ccc(NC(=O)C4CC4)cc3)n2)n[nH]1 [Tozasertib] (partner 0.1 µM)
relative viability (NCI-H661; first compound 0.01 µM): 0.38 | relative viability (NCI-H661; first compound 0.03162 µM): 0.327 | relative viability (NCI-H661; first compound 0.1 µM): 0.366 | relative viability (NCI-H661; first compound 0.3162 µM): 0.36 | relative viability (NCI-H661; first compound 1 µM): 0.36 | relative viability (SW 1573; first compound 0.01 µM): 0.249 | relative viability (SW 1573; first compound 0.03162 µM): 0.148 | relative viability (SW 1573; first compound 0.1 µM): 0.225 | relative viability (SW 1573; first compound 0.3162 µM): 0.193 | relative viability (SW 1573; first compound 1 µM): 0.173 | relative viability (NCI-H2009; first compound 0.01 µM): 0.816 | relative viability (NCI-H2009; first compound 0.03162 µM): 0.72 | relative viability (NCI-H2009; first compound 0.1 µM): 0.912 | relative viability (NCI-H2009; first compound 0.3162 µM): 0.821 | relative viability (NCI-H2009; first compound 1 µM): 0.573 | relative viability (NCI-H2126; first compound 0.01 µM): 0.861 | relative viability (NCI-H2126; first compound 0.03162 µM): 0.859 | relative viability (NCI-H2126; first compound 0.1 µM): 1.1 | relative viability (NCI-H2126; first compound 0.3162 µM): 0.864 | relative viability (NCI-H2126; first compound 1 µM): 0.798 | relative viability (NCI-H647; first compound 0.01 µM): 0.265 | relative viability (NCI-H647; first compound 0.03162 µM): 0.289 | relative viability (NCI-H647; first compound 0.1 µM): 0.113 | relative viability (NCI-H647; first compound 0.3162 µM): 0.332 | relative viability (NCI-H647; first compound 1 µM): 0.223 | relative viability (H3255; first compound 0.01 µM): 0.91 | relative viability (H3255; first compound 0.03162 µM): 0.654 | relative viability (H3255; first compound 0.1 µM): 0.544 | relative viability (H3255; first compound 0.3162 µM): 0.607 | relative viability (H3255; first compound 1 µM): 0.585 | relative viability (EMC-BAC-2; first compound 0.01 µM): 0.162 | relative viability (EMC-BAC-2; first compound 0.03162 µM): 0.292 | relative viability (EMC-BAC-2; first compound 0.1 µM): 0.277 | relative viability (EMC-BAC-2; first compound 0.3162 µM): 0.31 | relative viability (EMC-BAC-2; first compound 1 µM): 0.26 | relative viability (LXF-289; first compound 0.01 µM): 0.201 | relative viability (LXF-289; first compound 0.03162 µM): 0.219 | relative viability (LXF-289; first compound 0.1 µM): 0.268 | relative viability (LXF-289; first compound 0.3162 µM): 0.186 | relative viability (LXF-289; first compound 1 µM): 0.156 | relative viability (PC-14; first compound 0.01 µM): 0.689 | relative viability (PC-14; first compound 0.03162 µM): 0.578 | relative viability (PC-14; first compound 0.1 µM): 0.62 | relative viability (PC-14; first compound 0.3162 µM): 0.685 | relative viability (PC-14; first compound 1 µM): 0.598 | relative viability (EPLC-272H; first compound 0.01 µM): 0.282 | relative viability (EPLC-272H; first compound 0.03162 µM): 0.314 | relative viability (EPLC-272H; first compound 0.1 µM): 0.279 | relative viability (EPLC-272H; first compound 0.3162 µM): 0.212 | relative viability (EPLC-272H; first compound 1 µM): 0.234 | relative viability (HOP-62; first compound 0.01 µM): 0.473 | relative viability (HOP-62; first compound 0.03162 µM): 0.377 | relative viability (HOP-62; first compound 0.1 µM): 0.386 | relative viability (HOP-62; first compound 0.3162 µM): 0.408 | relative viability (HOP-62; first compound 1 µM): 0.319 | relative viability (LCLC-97TM1; first compound 0.01 µM): 0.236 | relative viability (LCLC-97TM1; first compound 0.03162 µM): 0.268 | relative viability (LCLC-97TM1; first compound 0.1 µM): 0.255 | relative viability (LCLC-97TM1; first compound 0.3162 µM): 0.34 | relative viability (LCLC-97TM1; first compound 1 µM): 0.236 | relative viability (NCI-H1993; first compound 0.01 µM): 0.621 | relative viability (NCI-H1993; first compound 0.03162 µM): 0.608 | relative viability (NCI-H1993; first compound 0.1 µM): 0.604 | relative viability (NCI-H1993; first compound 0.3162 µM): 0.64 | relative viability (NCI-H1993; first compound 1 µM): 0.566 | relative viability (NCI-H322M; first compound 0.01 µM): 0.717 | relative viability (NCI-H322M; first compound 0.03162 µM): 0.49 | relative viability (NCI-H322M; first compound 0.1 µM): 0.589 | relative viability (NCI-H322M; first compound 0.3162 µM): 0.57 | relative viability (NCI-H322M; first compound 1 µM): 0.448 | relative viability (NCI-H1915; first compound 0.01 µM): 0.464 | relative viability (NCI-H1915; first compound 0.03162 µM): 0.489 | relative viability (NCI-H1915; first compound 0.1 µM): 0.48 | relative viability (NCI-H1915; first compound 0.3162 µM): 0.461 | relative viability (NCI-H1915; first compound 1 µM): 0.348 | relative viability (SK-LU-1; first compound 0.01 µM): 0.306 | relative viability (SK-LU-1; first compound 0.03162 µM): 0.359 | relative viability (SK-LU-1; first compound 0.1 µM): 0.388 | relative viability (SK-LU-1; first compound 0.3162 µM): 0.363 | relative viability (SK-LU-1; first compound 1 µM): 0.259 | relative viability (NCI-H727; first compound 0.01 µM): 0.661 | relative viability (NCI-H727; first compound 0.03162 µM): 0.521 | relative viability (NCI-H727; first compound 0.1 µM): 0.571 | relative viability (NCI-H727; first compound 0.3162 µM): 0.659 | relative viability (NCI-H727; first compound 1 µM): 0.525 | relative viability (NCI-H2347; first compound 0.01 µM): 0.509 | relative viability (NCI-H2347; first compound 0.03162 µM): 0.508 | relative viability (NCI-H2347; first compound 0.1 µM): 0.718 | relative viability (NCI-H2347; first compound 0.3162 µM): 0.607 | relative viability (NCI-H2347; first compound 1 µM): 0.551 | relative viability (NCI-H2085; first compound 0.01 µM): 0.819 | relative viability (NCI-H2085; first compound 0.03162 µM): 0.762 | relative viability (NCI-H2085; first compound 0.1 µM): 0.823 | relative viability (NCI-H2085; first compound 0.3162 µM): 0.729 | relative viability (NCI-H2085; first compound 1 µM): 0.639 | relative viability (NCI-H2023; first compound 0.01 µM): 0.323 | relative viability (NCI-H2023; first compound 0.03162 µM): 0.428 | relative viability (NCI-H2023; first compound 0.1 µM): 0.401 | relative viability (NCI-H2023; first compound 0.3162 µM): 0.41 | relative viability (NCI-H2023; first compound 1 µM): 0.222 | relative viability (NCI-H1734; first compound 0.01 µM): 0.136 | relative viability (NCI-H1734; first compound 0.03162 µM): 0.257 | relative viability (NCI-H1734; first compound 0.1 µM): 0.3 | relative viability (NCI-H1734; first compound 0.3162 µM): 0.244 | relative viability (NCI-H1734; first compound 1 µM): 0.243
